Test results reported in PubChem BioAssay AID179 (DTP/NCI, 2004).
Activity calls are given as the source filed them.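 How the source made its calls: active means compounds giving half or more protection of infected cells from virus-caused growth loss, again on retest; inactive means the rest.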

System: CEM cells HIV-1 protection, formazan growth assay
Assay: NCI AIDS Antiviral Assay
Settings: for IC50: measured here: growth of uninfected CEM cells
Method in brief: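 Screen of anti-HIV-1 activity in human CEM cells using a formazan-based growth measurement at five drug concentrations. Hits with 50% or greater protection were repeated, and confirmation required reproducible complete protection.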

SMILES | EC50 [µM] | IC50 [µM] | outcome
Nc1nc2c(s1)CCC2 | > 708 | 5.62 | –
O=C(O)C1CCC(c2ccc(F)cc2F)N1 (stereo unspecified) | > 200 | > 200 | –
C(/C=C/N1CCCC1)=C\c1nc(N2CCCC2)c2ccccc2n1 | > 42.7 | 11.5 | –
CC1CCOC(Sc2ccccc2)C1 (stereo unspecified) | – | – | inactive
S=c1nnn(C2CCCN2)[nH]1 (stereo unspecified) | > 200 | > 200 | –
O=S(=O)(O)C(O)C(F)(F)C(F)(F)C(F)(F)C(F)(F)C(O)S(=O)(=O)O (stereo unspecified) | > 200 | 155 | –
CC(=O)Oc1ccc(N2C(=O)C3c4[nH]c5ccccc5c4C4CCC(C(C)(C)C)CC4C3C2=O)cc1 (stereo unspecified) | > 200 | 9.77 | –
CC(NC(=O)NC(C)(C)C)NC(=O)C(N)CC(=O)O (stereo unspecified) | > 200 | > 200 | –
N#C/C(=C\c1cc(Cl)ccc1O)C1CCC([N+](=O)[O-])CC1 (stereo unspecified) | > 200 | 30.2 | –
COc1cc(C2SC(N)=Nc3c2c(C)nn3C(=O)c2ccc(Cl)cc2)ccc1O (stereo unspecified) | > 200 | > 200 | –
COc1ccc(C2S/C(=C\c3ccc([N+](=O)[O-])cc3)C(=O)N2NC(=O)Cc2ccccc2)cc1 (stereo unspecified) | > 55 | > 55 | –
Cc1c2cc[nH]c(=O)c2cc2c(=O)c3cnccc3[nH]c12 | > 1.95 | > 1.95 | –
CCOP(=O)(OCC)/C(C)=N/O | > 1290 | > 1290 | –
N#CC(C(=N/O)/C(=N\O)C(C#N)c1ccccc1)c1ccccc1 (stereo unspecified) | > 794 | 123 | –
CC1OC2(CC(OCc3ccccc3)C1OCc1ccccc1)OCCO2 (stereo unspecified) | > 200 | 29.5 | –
COc1cc([C@H]2Oc3c(OC)cc(/C=C/C(N)=O)cc3[C@@H]2C(N)=O)ccc1O | > 200 | > 200 | –
COc1ccc(C(=O)N2CCc3c([nH]c4ccccc34)C2C(=O)O)o1 (stereo unspecified) | > 39.8 | 17.4 | –
CC(=O)Nc1ccc(-c2nnc(SCC(=O)Nc3cccc([N+](=O)[O-])c3)o2)cc1 | > 45.7 | 7.76 | –

SMILES | EC50 [µM] | IC50 [µM] | outcome
CCOP(=O)(OCC)C(C(=O)OC)C(=O)C(=O)Nc1ccc(Cl)cc1Cl (stereo unspecified) | > 61.7 | > 61.7 | –
N#CCCNCCN(CCN(C(=O)Nc1ccccc1)c1ccccc1)C(=O)Nc1ccccc1 | > 200 | 93.3 | –
O=c1c2c(-c3ccccc3)onc2n(-c2ccccc2)c(=O)n1-c1ccccc1 | > 200 | 10.5 | –
O=C1CCC(=O)N2c3ccccc3-c3ccccc3N12 | > 191 | > 191 | –
O=C(Nc1c(-c2nc3ccccc3[nH]2)sc(=S)n1-c1ccccc1)c1ccccc1 | > 3.39 | > 3.39 | –
C/C(C=O)=C\c1ccc(N(C)C)cc1 | > 38 | > 38 | –
COc1ccc(C(=O)N2CCN(c3ccc4c(c3)OCC(=O)N4)CC2)cc1 | > 200 | > 200 | –
CN(C)c1ccc(-c2nc(-c3cc4c(ccc5ccccc54)oc3=O)cs2)cc1 | > 100 | > 100 | –
Cc1nn(C(=O)c2ccncc2)c2c1C(c1ccccc1O)SC(N)=N2 (stereo unspecified) | 85.1 | 148 | –
COc1ccc(C2C=C(c3ccc(C)cc3)N(c3ccc(OC)cc3[N+](=O)[O-])C3C(=O)OC(=O)C23)c(OC)c1 (stereo unspecified) | > 200 | 31.6 | –
Cc1ccc(S(=O)(=O)Oc2ccc3oc4c(CO)ccc(NCCN(C)C)c4c(=O)c3c2)cc1 | > 38.9 | 6.92 | –
COC(=CN=Nc1nc(C#N)c(C#N)[nH]1)OC | > 214 | 162 | –
CSC1=C(C#N)C(c2ccccc2)CC(=O)N1 (stereo unspecified) | > 200 | > 200 | –
O=c1[nH]c(=O)n(C2CC(O)C(CO)O2)cc1C#Cc1ccc(C(F)(F)F)cc1 (stereo unspecified) | > 631 | 91.2 | –
CCOc1ccc(NC(=O)/C(=N\N)C(C(=O)OC)c2nc3ccc(Cl)cc3[nH]c2=O)cc1 (stereo unspecified) | > 38.9 | > 38.9 | –
CC(C)CCn1c(=O)c2c(=O)[nH][nH]c2c2ccccc21 | > 200 | > 200 | –
COc1cc(N(C)C)ccc1/C=C\c1ccnc2ccccc12 | > 200 | 13.5 | –
Cc1ccc2c(c1)C1(C)c3cc(C)ccc3SP1S2 (stereo unspecified) | > 12.6 | > 12.6 | –
